Measurements as given in publication PMC7587962, “Evaluation of Cytotoxicity and α-Glucosidase Inhibitory Activity of Amide and Polyamino-Derivatives of Lupane Triterpenoids” (Molecules, 2020).
Like-named read-outs stand apart in the source and are kept apart here.

Legend:
[1] = tested on: Rat Liver ER Neutral α-Glucosidase; assay: Endoplasmic reticulum α-glucosidase activity assay; type: biochemical
Source text: Betulinic acid inhibits yeast α-glucosidase activity and interferes with N-linked glycan modifications to cell-surface intercellular adhesion molecule-1 (ICAM-1) in human lung carcinoma A549 cells in a similar manner to castanospermine, an inhibitor of endoplasmic reticulum α-glucosidases I and II [66]. […] Taken together, these considerations prompted us to evaluate a series of lupanes with amide function or polyamine chain 11, 12, 16, 18, and 22–26 for α-glucosidase inhibition. Initially, they were screened against α-glucosidase of S. cerevisiae as an accessible and high-throughput model. Confirmatory experiments were performed on isolated rough endoplasmic reticulum vesicles from rat liver, which contain neutral α-glucosidases I and II in a membrane-bound form.
Endoplasmic reticulum was isolated from hepatocytes of decapitated male Sprague-Dawley rats, which were starved overnight and sacrificed the next morning. All experiments were approved by Volgograd regional ethic committee. The whole procedure was performed at 4 °C. In brief, a fresh tissue sample from an animal was washed twice with 10 mL of PBS to remove residual blood. The tissue was placed on a paper towel in order to absorb excess liquid and blood clots, if present. It was cut further into small pieces (1.5–2 cm) and washed once more. […] Homogenate was centrifuged at 1000× g for 10 min at 4 °C. After removal of the floating lipid layer by aspiration, supernatant was separated and centrifuged at 12,000× g for 15 min. at 4 °C. The supernatant fraction, which is the post mitochondrial fraction (PMF), was used for isolation of rough endoplasmic reticulum (RER) enriched microsomes by precipitation with 8 mM CaCl2 added dropwise. The final concentration of CaCl2 was 7 mM. Resulting sample was centrifuged at 8000 g for 10 min. at 4 °C. The supernatant was discarded, and the pellet was suspended in isotonic extraction buffer (0.3 mL of buffer for each g of original tissue). The suspension was homogenized completely to afford RER enriched microsomes. In a 96-well flat transparent plate 25 µL of the isolated RER microsomes were incubated with 50 µL of test compounds in 67 mM PBS (pH 6.8) at 37 °C for 10 min. Then, p-nitrophenyl-α-D-glucopyranoside (Sigma #N1377, St. Louis, MO, USA) was added to 1 mM final concentration and increase in absorbance was recorded for 42 min at 405 nm wavelength with Infinite M200 PRO microplate reader (Tecan, Austria). Concentration of RER microsomes was adjusted to achieve an increase in optical density of ~0.2 in control samples after 30 min. of incubation. Test compounds were prepared as described above for the yeast α-glucosidase assay.

Yeast α-Glucosidase = assay: Yeast α-glucosidase activity assay; type: biochemical, S. cerevisiae; details: pH 6.8, 37 °C, p-nitrophenyl-α-D-glucopyranoside 1 mM; read-out: Yeast α-Glucosidase, IC50 ± SE
Experimental: Taken together, these considerations prompted us to evaluate a series of lupanes with amide function or polyamine chain 11, 12, 16, 18, and 22–26 for α-glucosidase inhibition. Initially, they were screened against α-glucosidase of S. cerevisiae as an accessible and high-throughput model. Confirmatory experiments were performed on isolated rough endoplasmic reticulum vesicles from rat liver, which contain neutral α-glucosidases I and II in a membrane-bound form.
In a 96-well flat transparent plate, the 0.12 U/mL enzyme solution (EC 3.2.1.20, expressed in S. cerevisiae, Sigma #G0660, St. Louis, MO, USA) was incubated with test compounds in 67 mM PBS (pH 6.8) at 37 °C for 5 min. Then, p-nitrophenyl-α-D-glucopyranoside (Sigma #N1377, St. Louis, MO, USA) was added to 1 mM final concentration and an increase in absorbance was recorded for 15 min at 405 nm wavelength with Infinite M200 PRO microplate reader (Tecan, Austria). Test compounds were dissolved in DMSO and diluted to the desired concentration in 67 mM PBS (pH 6.8) supplemented with 0.01% Tween 80 to avoid aggregation. Final DMSO concentration was <0.25% in sample wells, and it was also introduced in control and blank wells. […] Due to the absence of normal distribution of data, a Mann–Whitney U-test was used to determine statistical significance versus enzyme control using GraphPad Prism 8.0.1.

[2] = tested on: 60 human tumor cell lines; assay: cells
MDA-MB-231/ATCC = assay: NCI-60 SRB screen: breast cancer MDA-MB-231/ATCC; type: cell-based; details: Homo sapiens, 48 h; MDA-MB-231/ATCC; single dose 10 µM; read-out: Percentage Cell Growth
HT29 = assay: NCI-60 SRB screen: colon cancer HT29; type: cell-based; details: Homo sapiens, HT-29, 48 h; HT29; single dose 10 µM; read-out: Percentage Cell Growth
SF-295 = assay: NCI-60 SRB screen: CNS cancer SF-295; type: cell-based, human; details: SF-295; single dose 10 µM
MOLT-4 = assay: NCI-60 SRB screen: leukemia MOLT-4; type: cell-based; details: Homo sapiens, 48 h; MOLT-4; single dose 10 µM; read-out: Percentage Cell Growth
CCRF-CEM = assay: NCI-60 SRB screen: leukemia CCRF-CEM; type: cell-based; details: Homo sapiens, 48 h, single dose 10 µM, read-out: Percentage Cell Growth
SK-MEL-5 = assay: NCI-60 SRB screen: melanoma SK-MEL-5; type: cell-based, human; details: SK-MEL-5; single dose 10 µM
HCT-116 = assay: NCI-60 SRB screen: colon cancer HCT-116; type: cell-based; details: Homo sapiens, 48 h; HCT-116; single dose 10 µM; read-out: Percentage Cell Growth
UO-31 = assay: NCI-60 SRB screen: renal cancer UO-31; type: cell-based, human; details: UO-31; single dose 10 µM
CAKI-1 = assay: NCI-60 SRB screen: renal cancer CAKI-1; type: cell-based, human; details: CAKI-1; single dose 10 µM
SW-620 = assay: NCI-60 SRB screen: colon cancer SW-620; type: cell-based; details: Homo sapiens, 48 h; SW-620; single dose 10 µM; read-out: Percentage Cell Growth
T-47D = assay: NCI-60 SRB screen: breast cancer T-47D; type: cell-based, human; details: T-47D; single dose 10 µM
HOP-92 = assay: NCI-60 SRB screen: non-small cell lung cancer HOP-92; type: cell-based, human; details: HOP-92; single dose 10 µM
RPMI-8226 = assay: NCI-60 SRB screen: leukemia RPMI-8226; type: cell-based; details: Homo sapiens, 48 h; RPMI-8226; single dose 10 µM; read-out: Percentage Cell Growth
U251 = assay: NCI-60 SRB screen: CNS cancer U251; type: cell-based; details: Homo sapiens, U-251, 48 h; U251; single dose 10 µM; read-out: Percentage Cell Growth
NCI-H460 = assay: NCI-60 SRB screen: non-small cell lung cancer NCI-H460; type: cell-based; details: Homo sapiens, 48 h; NCI-H460; single dose 10 µM; read-out: Percentage Cell Growth
PC-3 = assay: NCI-60 SRB screen: prostate cancer PC-3; type: cell-based, human; details: PC-3; single dose 10 µM
HL-60(TB) = assay: NCI-60 SRB screen: leukemia HL-60(TB); type: cell-based; details: Homo sapiens, 48 h; HL-60(TB); single dose 10 µM; read-out: Percentage Cell Growth
ACHN = assay: NCI-60 SRB screen: renal cancer ACHN; type: cell-based, human; details: single dose 10 µM
MCF7 = assay: NCI-60 SRB screen: breast cancer MCF7; type: cell-based; details: Homo sapiens, 48 h; MCF7; single dose 10 µM; read-out: Percentage Cell Growth
SNB-75 = assay: NCI-60 SRB screen: CNS cancer SNB-75; type: cell-based, human; details: SNB-75; single dose 10 µM

Q: Which results are given for `C=C(C)[C@@H]1CC[C@]2(CO)CC[C@]3(C)[C@H](CC[C@@H]4[C@@]5(C)CCCNC(C)(C)[C@@H]5CC[C@]43C)[C@@H]12` [Compound 23]?
A: Rat Liver ER Neutral α-Glucosidase Inhibition, m ± SD ([1]; 10 μM): −1.34 ± 2.22%; Rat Liver ER Neutral α-Glucosidase Inhibition, m ± SD ([1]; 100 μM): 5.85 ± 8.03%; IC50 (Yeast α-Glucosidase): > 100 µM

Q: For `C=C(C)[C@@H]1CC[C@]2(C(=O)NCCCCCCN(CCCN)CCCN)CC[C@]3(C)[C@H](CC[C@@H]4[C@@]5(C)CC[C@H](O)C(C)(C)[C@@H]5CC[C@]43C)[C@@H]12` [Compound 8], which activity at 10 µM ([2]; read-out: Mean Growth, %) is on record?
A: The activity at 10 µM was 80.5%.

Q: And the activity at 10 µM ([2]; read-out: Range of Growth, %)?
A: The activity at 10 µM was 20.4 to 135%.

Q: What about the activity at 10 µM (MDA-MB-231/ATCC) of the same molecule?
A: The activity at 10 µM was 20.4%.

Q: What about the activity at 10 µM (HT29) of the same molecule?
A: Its activity at 10 µM is 24.3%.

Q: `C=C(C)[C@@H]1CC[C@]2(C(=O)NCCN(CCNC(=O)OC(C)(C)C)C(=O)OC(C)(C)C)CC[C@]3(C)[C@H](CC[C@@H]4[C@@]5(C)CCC(=O)C(C)(C)[C@@H]5CC[C@]43C)[C@@H]12` [Compound 14] was tested. Which activity at 10 µM ([2]; read-out: Mean Growth, %) did it give?
A: The activity at 10 µM was 36.6%.

Q: What about the “Percentage Cell Growth” value (SF-295) of the same molecule?
A: Its value is 31.97%.

Q: And the activity at 10 µM (MOLT-4)?
A: The activity at 10 µM was 11.7%.

Q: And the activity at 10 µM (CCRF-CEM)?
A: The activity at 10 µM was 14.9%.

Q: And the “Percentage Cell Growth” value (SK-MEL-5)?
A: The value was −8.44%.

Q: What about the activity at 10 µM (HCT-116) of the same molecule?
A: Its activity at 10 µM is 17.5%.

Q: What about the “Percentage Cell Growth” value (UO-31) of the same molecule?
A: Its value is 17.41%.

Q: And the “Percentage Cell Growth” value (CAKI-1)?
A: The value was 18.57%.

Q: What about the activity at 10 µM (SW-620) of the same molecule?
A: Its activity at 10 µM is 28.8%.

Q: And the “Percentage Cell Growth” value (T-47D)?
A: The value was 28.02%.

Q: What about the “Percentage Cell Growth” value (HOP-92) of the same molecule?
A: The value was 8.07%.

Q: And the activity at 10 µM (RPMI-8226)?
A: Its activity at 10 µM is 22.2%.

Q: And the activity at 10 µM (U251)?
A: Its activity at 10 µM is 27.9%.

Q: And the activity at 10 µM (NCI-H460)?
A: The activity at 10 µM was 20.6%.

Q: What about the activity at 10 µM (MDA-MB-231/ATCC) of the same molecule?
A: The activity at 10 µM was -33.8%.

Q: And the “Percentage Cell Growth” value (PC-3)?
A: Its value is 19.12%.

Q: What about the activity at 10 µM (HL-60(TB)) of the same molecule?
A: The activity at 10 µM was -14.3%.

Q: What about the activity at 10 µM (HT29) of the same molecule?
A: Its activity at 10 µM is 23.7%.

Q: And the “Percentage Cell Growth” value (ACHN)?
A: Its value is 23.51%.

Q: What about the activity at 10 µM (MCF7) of the same molecule?
A: The activity at 10 µM was 22.2%.

Q: And the “Percentage Cell Growth” value (SNB-75)?
A: The value was 23.86%.

Q: What does the source list for `C=C(C)[C@@H]1CC[C@]2(C(N)=O)CC[C@]3(C)[C@H](CC[C@@H]4[C@@]5(C)CCC(=O)C(C)(C)[C@@H]5CC[C@]43C)[C@@H]12` [Compound 9]?
A: activity at 10 µM ([2]; read-out: Mean Growth, %): 72%; activity at 10 µM ([2]; read-out: Range of Growth, %): 25.9 to 115%; activity at 10 µM (HL-60(TB)): 25.9%

Q: Which results are given for `C=C(C)[C@@H]1CC[C@]2(C(=O)NCCNCCN)CC[C@]3(C)[C@H](CC[C@@H]4[C@@]5(C)CC[C@H](O)C(C)(C)[C@@H]5CC[C@]43C)[C@@H]12` [Compound 7]?
A: activity at 10 µM ([2]; read-out: Mean Growth, %): 99.2%; activity at 10 µM ([2]; read-out: Range of Growth, %): 53.8 to 147%

Q: What does the source list for `C=C(C)[C@@H]1CC[C@]2(C(=O)N3CCNCC3)CC[C@]3(C)[C@H](CC[C@@H]4[C@@]5(C)CCC(=O)C(C)(C)[C@@H]5CC[C@]43C)[C@@H]12` [Compound 20]?
A: activity at 10 µM ([2]; read-out: Mean Growth, %): 101%; activity at 10 µM ([2]; read-out: Range of Growth, %): 87.8 to 111%
